Assay results reported in ChEMBL document CHEMBL1166016, “Design, synthesis, and biological evaluation of novel coxsackievirus B3 inhibitors” (Bioorg Med Chem, 2010).
pEC50: −log10 of the molar value.

Columns and labels:
[1] = Cytotoxicity against african green monkey Vero cells after 3 days by MTS assay; assay type: cell-based; details: chlorocebus sabaeus
Coxsackievirus B3 = assay: Antiviral activity against Coxsackievirus B3 infected in african green monkey […] assessed as inhibition of virus-induced cytopathic effect after 3 days by MTS assay; assay type: functional, organism-based; details: for pEC50: Enterovirus B, 72 h

Compound	CC50 at 72 h [1] [µM]	pEC50 (Coxsackievirus B3)	EC90 (Coxsackievirus B3) [µM]
Clc1ncnc2c1ncn2[C@H]1C[C@H]2C[C@@H]1C[C@@H]2c1ccccc1 (relative stereo)	17	5.24	–
ClCC1C2COC3C2OC1C3n1cnc2c(Cl)ncnc21 (stereo not drawn)	> 50	6.06	–
Clc1ncnc2c1ncn2C[C@H]1C[C@@H]2C=C[C@H]1C2 (relative stereo)	> 50	5.45	8.49
OCC1C2COC3C2CC1C3n1cnc2c(Cl)ncnc21 (stereo not drawn)	> 50	5.95	–
OCC1CC2CC1CC2n1cnc2c(Cl)ncnc21 (stereo not drawn)	> 50	6.04	–
Clc1ncnc2c1ncn2[C@H]1[C@@H]2C[C@@H]3CO[C@H]1[C@H]3C2 (relative stereo)	> 50	5.90	–
ClCC1C2COC3C2CC1C3n1cnc2c(Cl)ncnc21 (stereo not drawn)	> 50	6.00	–
O=C1C[C@H]2C[C@@H]1C[C@@H]2n1cnc2c(Cl)ncnc21 (relative stereo)	> 50	6.05	1.78
Clc1ncnc2c1ncn2[C@H]1C[C@H]2C[C@@H]1C[C@@H]2n1cnc2c(Cl)ncnc21 (relative stereo)	> 50	4.65	–
Clc1ncnc2c1ncn2[C@H]1C2C3C[C@H]1C[C@H]32 (relative stereo)	43.9	5.82	–
Clc1ncnc2c1ncn2[C@H]1C[C@H]2C[C@@H]1[C@H](c1ccccc1)C2 (relative stereo)	13.4	5.53	–
O[C@@H]1[C@@H]2C[C@H]([C@@H]1O)[C@@H](n1cnc3c(Cl)ncnc31)C2 (relative stereo)	> 50	5.65	36.52
FC1(F)C[C@H]2C[C@H]1C[C@@H]2n1cnc2c(Cl)ncnc21 (relative stereo)	> 50	6.00	–
O[C@@H]1C[C@H]2C[C@@H]1[C@H](n1cnc3c(Cl)ncnc31)C2 (relative stereo)	> 50	5.89	–
O[C@H]1C[C@H]2C[C@@H]1C[C@@H]2n1cnc2c(Cl)ncnc21 (relative stereo)	> 50	5.61	–
Clc1ncnc2c1ncn2[C@@H]1CC2CC1[C@@H](n1cnc3c(Cl)ncnc31)C2	> 50	5.11	–
CC1(C)[C@H]2CC[C@H](C2)[C@@H]1n1cnc2c(Cl)ncnc21 (relative stereo)	> 50	4.96	>50

Compound	CC50 at 72 h [1] [µM]	pEC50 (Coxsackievirus B3)	EC90 (Coxsackievirus B3) [µM]
O=C1C[C@@H]2C[C@H]1[C@H](n1cnc3c(Cl)ncnc31)C2 (relative stereo)	> 50	5.80	–
Clc1ncnc2c1ncn2[C@@H]1C[C@@H]2C[C@H]1[C@@H]1O[C@@H]21 (relative stereo)	> 50	5.99	3.46
Clc1ncnc2c1ncn2[C@@H]1[C@@H]2C[C@@H]3[C@H]1CO[C@@H]3C2 (relative stereo)	> 50	6.00	–
F[C@H]1C[C@H]2C[C@@H]1C[C@@H]2n1cnc2c(Cl)ncnc21 (relative stereo)	> 50	6.02	1.96
O[C@H]1C[C@@H]2C[C@@H]1C[C@H]2n1cnc2c(Cl)ncnc21 (relative stereo)	> 50	5.98	–
Clc1ncnc2c1ncn2[C@H]1C[C@H]2C[C@@H]1[C@@H]1CCC[C@H]21 (relative stereo)	43.4	5.72	–
Clc1ncnc2c1ncn2[C@H]1C[C@@H]2C=C[C@H]1C2 (relative stereo)	> 50	5.61	5.87
Clc1ncnc2c1ncn2[C@H]1C[C@H]2C[C@@H]1c1cc3ccccc3cc12 (relative stereo)	> 50	< 4.30	>50
O[C@@H]1C[C@H]2C[C@@H]1[C@@H](n1cnc3c(Cl)ncnc31)C2 (relative stereo)	47.9	5.96	–
OCC1C2COC3C2OC1C3n1cnc2c(Cl)ncnc21 (stereo not drawn)	> 50	5.73	–
Clc1ncnc2c1ncn2C[C@@H]1C[C@H]2CC[C@@H]1C2 (relative stereo)	> 50	5.42	9.43
OCC1CC2CC1C(n1cnc3c(Cl)ncnc31)C2 (stereo not drawn)	> 50	6.01	–
CC1(C)[C@@H]2CC[C@@]1(C)[C@H](n1cnc3c(Cl)ncnc31)C2 (relative stereo)	> 50	5.46	36.26
Clc1ncnc2c1ncn2[C@H]1C[C@H]2C[C@@H]1c1ccccc12 (relative stereo)	> 50	6.18	>50
C[C@@H](NC(=O)c1cccc(-c2cnc(-c3cc4ccccc4cn3)[nH]2)c1)c1ccc(F)cc1	> 50	5.92	–
FC1(F)C[C@@H]2C[C@@H](n3cnc4c(Cl)ncnc43)[C@H]1C2 (relative stereo)	> 50	5.94	34.4
